{
  "source": "patent US20230255872A1",
  "about": "“ORAL CARE COMPOSITIONS AND METHODS” (DENTHERAPY LTD, priority 2020, published 2023)",
  "key": {"[1]": {"description": "(§1) Introduction. The remineralisation potential of three formulations: deionised water, 1450 ppm fluoride solution from MFP and fluoride free BoostPaste MON-6 formulation were tested in a standard microindentation erosive lesion rehardening model as described above in example 3. The objective of this study was to ascertain if fluoride free Boostpaste MON-6 formulation has the potential to remineralise erosive lesions without the presence of fluoride.\nMethod. Twice a day for five days human enamel specimens with citric acid erosive lesions were brushed with the test formulations and incubated in artificial saliva (containing 1500 units/L of phosphatase) at 37° C. between treatments. The microhardness of the enamel specimens was remeasured each day for five days and the degree of re-mineralization calculated using the boundary conditions of 100% mineralized for the hardness of the initial enamel before the formation of the lesions and 0% mineralization for the hardness of the enamel after the formation of the lesion."}, "[2]": {"experiment": "Further stain prevention cycling study (Example 8)", "design": "species or system bovine", "description": "Introduction. A cycling staining procedure as described in example 6 was again used to measure the staining prevention when bovine enamel was subjected to a cycling staining procedure after being treated with one of four formulations: ToothBoost MOL-6, a 3% solution of OPN pH adjusted to 7.0, a 1.25% solution of sodium bicarbonate pH adjusted to 7.0 and deionised water. The aim of the study was to rank the formulations in terms of their stain prevention capability when bovine enamel was treated with a combination of tea stain and chlorhexidine.\nMethod. The enamel cores were treated by spraying the assigned treatment onto the enamel face using a single actuation of the ToothBoost spray pack and incubating for two minutes.\nThe enamel specimens were then cycled between a 1% chlorhexidine solution, a solution of strong tea and artificial saliva for approximately ten cycles per day. At the end of the day of cycling the enamel was rinsed and allowed to dry before the enamel colour measured. The cycling continued for a total of three days of cycling. From the L*a*b* measurements the ΔE76 (change in perceivable colour) was calculated. ΔE76=1 is the smallest perceivable colour change that can be observed.\nThe cycling continued every day for three days.\nAfter each set of cycling the enamel was rinsed with deionised water and allowed to dry before colour measurements were made. Fresh solutions were made at the start of each set of cycles.\nResults. The change in colour of the enamel was calculated from the L*a*b* values where the ΔE76 (The difference between enamel colour before and after cycling) was determined from equation 1: […]"}, "[3]": {"description": "as §1, with “500” for “1450”, “Toothboost MOL-15” for “BoostPaste MON-6”, “model,” for “model”, “Toothboost MOL-15” for “Boostpaste MON-6”\nMethod. Five times a day for five days human enamel specimens with citric acid erosive lesions were sprayed with 0.15 g of the test formulations and incubated in artificial saliva (containing 1500 units/L of phosphatase) at 37° C. between treatments. The microhardness of the enamel specimens was remeasured after five days and the degree of re-mineralization calculated using the boundary conditions of 100% mineralized for the hardness of the initial enamel before the formation of the lesions and 0% mineralization for the hardness of the enamel after the formation of the lesion.", "remark": "listed apart in the source"}, "[4]": {"experiment": "Vickers microindentation erosive lesion rehardening model, MOK vs MOL (Example 3)", "conditions": "bovine enamel, treated twice a day for seven days, spray approx 0.1 ml, N=8", "description": "Introduction. […] The objective of the study was to ascertain if formulation development for ToothBoost retained remineralizing efficacy. Four treatment groups were placed in the study: 1. MOK (legacy formulation), 2. Phosphate free ToothBoost MOL (development formulation), 3. 500 ppm fluoride solution made from MFP, 4. Deionised water. N=8 enamel specimens per treatment group.\nEnamel blocks are prepared from sound disease free human molars or bovine incisors and mounted in 25 mm diameter resin discs. After curing the underside of the disc is flattened using p400 grit paper. […]\nThe discs are then rinsed under deionised water and sonicated for five minutes. Initial microhardness of the sound enamel is measured by microindentation to determine that the enamel is sufficiently mineralized for the purpose of the study and to record the microhardness of the sound enamel. […]\nMethod. […] The microhardness of the de-mineralized enamel is then measured and the enamel discs organised so that each group have a similar range of microhardness values.\nThe citric acid eroded bovine enamel specimens were then treated twice a day for seven days. […] At the end of day seven, the enamel specimens were rinsed in deionised water, dried and the micro hardness of the enamel was measured by Vickers microindentation to determine the extent of the re-mineralization of the enamel lesions. […]"}, "[5]": {"conditions": "after the second round of treatments"}},
  "note": "Like-named read-outs stand apart in the source and are kept apart here.",
  "data": [
    {"compound": "F", "note": "[1450 ppm fluoride solution, monofluorophosphate]", "values": [
      {"measurement": "remineralisation of erosive lesions, statistical comparison", "setting": "[1]; brushed twice a day for five days", "result": "statistically better than deionised water"},
      {"measurement": "calculated remineralisation", "setting": "[1]; human enamel, brushed twice a day, after five days of treatment, N=10", "result": "over 23%"}
    ]},
    {"compound": "O=C([O-])O.[Na+]", "note": "[sodium bicarbonate]", "values": [
      {"measurement": "protection from staining (ΔE76), statistical comparison", "setting": "[2]; [5]", "result": "statistically the same"}
    ]},
    {"compound": "OPN solution: 3% solution of OPN (osteopontin) pH adjusted to 7.0", "values": [
      {"measurement": "protection from staining (ΔE76), statistical comparison", "setting": "[2]; after the first set of treatments", "result": "statistically more protection than sodium bicarbonate solution"},
      {"measurement": "protection from staining (ΔE76), statistical comparison", "setting": "[2]; [5]", "result": "statistically the same"},
      {"measurement": "protection from staining (ΔE76), statistical comparison", "setting": "[2]; after the third round of treatments", "result": "statistically the same"},
      {"measurement": "protection from staining (ΔE76), statistical comparison", "setting": "[2]; after the third round of treatments, listed as OPN", "result": "statistically better than sodium bicarbonate"}
    ]},
    {"compound": "F", "note": "[500 ppm fluoride solution, monofluorophosphate]", "values": [
      {"measurement": "remineralisation of erosive enamel lesions, statistical analysis", "setting": "[3]; after 5 days of treatment", "result": "significant remineralisation"},
      {"measurement": "calculated remineralisation", "setting": "[3]; human enamel, sprayed 0.15 g five times a day for five days, 100% = initial enamel hardness, 0% = after lesion", "result": "over 25%"},
      {"measurement": "remineralisation of erosive lesions (Vickers microhardness), statistical comparison", "setting": "[4]", "result": "statistically (probability <0.05) better than deionised water"}
    ]}
  ]
}
